# In patent US20050085457A1, “Therapeutic quinolone compounds with 5-ht-antagonistic properties” (priority 2001, published 2005):
# System: not given
# Assay: not given
# Details: not given
row,SMILES,melting point
1,"CCNC(=O)N1CCN(c2ccc(NC(=O)c3cc(=O)c4cc(F)cc(N5CCN(C)CC5)c4o3)cc2)CC1 [Example 81, 4-[4-({1-[6-Fluoro-8-(4-methyl-piperazin-1-yl)-4-oxo-4H-chromen-2-yl]-methanoyl}-amino)-phenyl]-piperazine-1-carboxylic Acid Ethylamide]",236 to 238 °C
2,"CN1CCN(c2cccc3c(=O)cc(C(=O)Nc4ccc(N5CCOCC5)cc4O)oc23)CC1 [Example 22, 8-(4-Methyl-piperazin-1-yl)-4-oxo-4H-chromene-2-carboxylic Acid (2-hydroxy-4-morpholin-4-yl-phenyl)-amide]",248.4 to 249.6 °C
3,"CN1CCN(c2cccc3c(=O)cc(C(=O)Nc4ccc(N5CCOCC5)cc4)oc23)CC1 [Example 1, 8-(4-methyl-1-piperazinyl)-N-[4-(4-morpholinyl)phenyl]-4-oxo-4H-chromene-2-carboxamide]",217 to 218 °C (dec.)
4,"COc1cc(N2CCN(C)CC2)c2oc(C(=O)Nc3ccc(N4CCOCC4)cc3)cc(=O)c2c1 [Example 31, 6-Methoxy-8-(4-methyl-piperazin-1-yl)-4-oxo-4H-chromene-2-carboxylic acid (4-morpholin-4-yl-phenyl)-amide]",234 to 236 °C
5,"CN1CCN(c2cccc3c(=O)cc(C(=O)N(C)c4ccc(N5CCOCC5)cc4)oc23)CC1 [Example 25, 8-(4-Methylpiperazin-1-yl)-4-oxo-4H-chromene-2-carboxylic Acid methyl-(4-morpholin-4-yl-phenyl)amide]",245 to 246.8 °C
6,"COc1cc(N2CCN(C)CC2)c2oc(C(=O)Nc3ccc(N4CCN(C(=O)CCO)CC4)cc3)cc(=O)c2c1 [Example 68, 6-Methoxy-8-(4-methyl-piperazin-1-yl)-4-oxo-4H-chromene-2-carboxylic acid {4-[4-(3-hydroxy-propanoyl)-piperazin-1-yl]-phenyl}-amide]",195 to 197 °C
7,"CCS(=O)(=O)N1CCN(c2ccc(NC(=O)c3cc(=O)c4cc(F)cc(N5CCN(C)CC5)c4o3)cc2)CC1 [Example 71, 6-Fluoro-8-(4-methyl-piperazin-1-yl)-4-oxo-4H-chromene-2-carboxylic Acid [4-(4-ethane sulfonyl-piperazin-1-yl)-phenyl]-amide]",233 to 234 °C
8,"CN1CCN(c2cccc3c2OC(C(=O)Nc2ccc(N4CCOCC4)cc2)CC3=O)CC1 (single isomer, unassigned) [Example 79, 8-(4-Methyl-piperazin-1-yl)-4-oxo-chroman-2-carboxylic acid (4-morpholin-4-yl-phenyl)-amide (Faster Running Isomer)]",216 °C (dec.)
9,"CN1CCN(c2cccc3c2OC(C(=O)Nc2ccc(N4CCOCC4)cc2)CC3)CC1 (single isomer, unassigned; (+)) [Example 76, (+)-8-(4-Methyl-piperazin-1-yl)-chroman-2-carboxylic Acid (4-morpholin-4-yl-phenyl)-amide]",206 to 207 °C
10,"CN1CCN(c2cc(F)cc3c(=O)cc(C(=O)Nc4ccc(N5CCN(C(=O)CCO)CC5)cc4)oc23)CC1 [Example 73, 6-Fluoro-8-(4-methyl-piperazin-1-yl)-4-oxo-4H-chromene-2-carboxylic acid {4-[4-(3-hydroxy-propanoyl)-piperazin-1-yl]-phenyl}-amide]",195 to 199 °C
11,"CN1CCN(c2cccc3c2OC(C(=O)Nc2ccc(N4CCOCC4)cc2)CC3)CC1 (single isomer, unassigned; (-)) [Example 77, (−)-8-(4-Methyl-piperazin-1-yl)-chroman-2-carboxylic acid (4-morpholin-4-yl-phenyl)-amide]",205.5 to 207 °C
12,"CN1CCN(c2cccc3c2OC(C(=O)Nc2ccc(N4CCOCC4)cc2)CC3=O)CC1 (racemic) [Example 78, racemic-8-(4-methyl-piperazin-1-yl)-4-oxo-chroman-2-carboxylic Acid (4-morpholin-4-yl-phenyl)-amide]",215 to 216 °C
13,"CN1CCN(c2cccc3c2OC(C(=O)Nc2ccc(N4CCOCC4)cc2)CC3)CC1 (racemic) [Example 75, racemic-8-(4-Methyl-piperazin-1-yl)-chroman-2-carboxylic Acid (4-morpholin-4-yl-phenyl)-amide]",215 to 216 °C
14,"CN1CCN(c2cccc3c2OC(C(=O)Nc2ccc(N4CCOCC4)cc2)CC3=O)CC1 (single isomer, unassigned) [Example 80, 8-(4-Methyl-piperazin-1-yl)-4-oxo-chroman-2-carboxylic Acid (4-morpholin-4-yl-phenyl)-amide (Slower Running Isomer)]",215 °C (dec.)
15,"CN1CCN(c2cccc3c(=O)cc(-c4nc5ccc(N6CCOCC6)cc5o4)oc23)CC1 [Example 21, 8-(4-Methyl-piperazin-1-yl)-2-(6-morpholin-4-yl-benzooxazol-2-yl)-chromen-4-one]",158.1 to 158.8 °C

# Molecular target: 5-HT1B and 5HT1D receptors
# Assay: not given
# Details: guinea pig cortex membranes; "may result in a measurement of"; assay of Roberts et al.; read-out: Kd of the radioligand (saturation studies); cited from earlier work
row,SMILES,Kd [nM]
1,COc1ccc(NC(=O)c2ccc(-c3ccncc3)c(C)c2)cc1N1CCN(C)CC1 [[^3H]-GR125743],0.046 ± 0.004

# System: Hartley guinea pigs
# Assay: learned helplessness test in guinea pigs
# Assay type: in vivo
# Details: guinea pig
# Excerpt: The utility of the compounds for example to treat depression may be shown via a learned helplessness test in guinea pigs, which is used extensively as correlative to antidepressant activity in humans. The learned helplessness test may be carried out as follows: Seventy male Hartley guinea pigs, each weighing about 350-425 gm are fed ad lib, and are housed under a 12-hour light/dark cycle. The procedure consists of two phases: The induction phase and the avoidance-training phase. In the induction phase, subjects are placed into standard shuttle cages (20 L×16 W×21 centimeters H) which are fitted with a grid floor. Electrical stimulation (1.25 mA, 10 sec duration) is delivered to the floor of the cage every 90-sec during 1 hour daily sessions. Subjects have no opportunity to escape or to avoid shocks. Induction is conducted for 2 consecutive days.
# In avoidance training, testing is also conducted in the shuttle cages, except that the subjects are not returned to the same chamber in which induction had occurred. Additionally, all cages are fitted with a partition with an arch in the center of the cage, through which animals can pass between the left and right halves of the cage. The procedure employed is a standard shuttle avoidance procedure in which a compound, conditioned stimulus (a 10-sec presentation of a tone and turning on of a lamp on the side of the cage that the guinea pig was occupying) serves to indicate presentation of electrical current to the floor of the cage. Shock is presented for a 5 sec period, 5 sec after initiation of the conditioned stimulus. Entry into the opposite side of the shuttle cage via the arched partition prior to shock onset results in the end of the trial (avoidance response). If shock is delivered, entry into the opposite side of the cage results in termination of the shock and CS (escape). Reversal of learned helplessness in the induction subjects correlates to antidepressant activity of the test compound.
# Avoidance training, 45-min in duration, is conducted on 2 consecutive days, beginning 48 hr after the final induction session. Seventy subjects are assigned to 1 of 6 groups of 11-12 animals. The groups are as follows: • 1) No induction group. The subjects are placed into the shuttle cages but are not given inescapable shock, the animals are subsequently trained in the avoidance procedure and the vehicle is administered; • 2) Induction vehicle control group; • 3) Imipramine 17.8 mg/kg; • 4) 0.3 mg/kg compounds; • 5) 1 mg/kg compounds; and • 6) 5 mg/kg compounds.
# Groups 2-6 are given induction and avoidance training sessions. Injections are administered immediately following induction sessions and 1 hour prior to avoidance training sessions. […]
row,SMILES,activity in the learned helplessness assay for antidepressant/antianxiety activity
1,"COc1cc(N2CCN(C)CC2)c2oc(C(=O)Nc3ccc(N4CCOCC4)cc3)cc(=O)c2c1 [Example 31, 6-Methoxy-8-(4-methyl-piperazin-1-yl)-4-oxo-4H-chromene-2-carboxylic acid (4-morpholin-4-yl-phenyl)-amide]",demonstrate activity
2,"CCS(=O)(=O)N1CCN(c2ccc(NC(=O)c3cc(=O)c4cc(F)cc(N5CCN(C)CC5)c4o3)cc2)CC1 [Example 71, 6-Fluoro-8-(4-methyl-piperazin-1-yl)-4-oxo-4H-chromene-2-carboxylic Acid [4-(4-ethane sulfonyl-piperazin-1-yl)-phenyl]-amide]",demonstrate activity
3,"CCC(=O)N1CCN(c2ccc(NC(=O)c3cc(=O)c4cc(F)cc(N5CCN(C)CC5)c4o3)cc2)CC1 [Example 72, 6-Fluoro-8-(4-methyl-piperazin-1-yl)-4-oxo-4H-chromene-2-carboxylic acid [4-(4-propionyl-piperazin-1-yl)-phenyl]-amide]",demonstrate activity
4,"CCC(=O)N1CCN(c2ccc(NC(=O)c3cc(=O)c4cc(OC)cc(N5CCN(C)CC5)c4o3)cc2)CC1 [Example 44, 6-Methoxy-8-(4-methyl-piperazin-1-yl)-4-oxo-4H-chromene-2-carboxylic Acid [4-(4-propionyl-piperazin-1-yl)-phenyl]-amide]",demonstrate activity
